This is an account of results in patent US10266552B2, “Condensed heterocyclic compound having cycloalkylpyridyl group or salt thereof, agricultural and horticultural insecticide comprising the compound, and method for using the insecticide” (Nihon Nohyaku Co., Ltd., priority 2015, dated 2019).

What all share (type): in vivo
One assay has as its system Myzus persicae. Nature of the assay: Test of control effect on Myzus persicae (foliar application, potted Chinese cabbage). As to conditions: 144 h, foliar application to potted Chinese cabbage plants, 6 days after the foliar application, read-out: control effect (control rate), activity level. The source says: Test of Control Effect on Myzus persicae Chinese cabbage plants were planted in plastic pots (diameter: 8 cm, height: 8 cm), green peach aphids (Myzus persicae) were propagated on the plants, and the number of surviving green peach aphids in each pot was counted. The condensed heterocyclic compounds represented by the general formula (1) of the present invention or salts thereof were separately dispersed in water and diluted to 500 ppm, and the agrochemical dispersions were applied to the foliage of the potted Chinese cabbage plants. After the plants were air-dried, the pots were kept in a greenhouse. At 6 days after the foliar application, the number of surviving green peach aphids on the Chinese cabbage plant in each pot was counted, the control rate was calculated according to the formula shown below, and the control effect was evaluated according to the criterion shown below. Control rate=100−{(T×Ca)/(Ta×C)}×100 Ta: the number of survivors before the foliar application in a treatment plot T: the number of survivors after the foliar application in a treatment plot Ca: the number of survivors before the foliar application in a non-treatment plot C: the number of survivors after the foliar application in a non-treatment plot Criterion A: the control rate is 100%. B: the control rate is 90 to 99%. C: the control rate is 80 to 89%. D: the control rate is 50 to 79%.

A further assay deals with Laodelphax striatella. Nature of the assay: Test of insecticidal effect on Laodelphax striatella (rice seedling dip). As to conditions: Laodelphax striatellus, 192 h, rice seedlings dipped for 30 seconds, 3rd-instar larvae, 8 days after the inoculation, read-out: insecticidal effect (corrected mortality rate), activity level. From the text: Test of Insecticidal Effect on Laodelphax striatella
The condensed heterocyclic compounds represented by the general formula (1) of the present invention or salts thereof were separately dispersed in water and diluted to 500 ppm, and rice plant seedlings (variety: Nihonbare) were dipped in the agrochemical dispersions for 30 seconds. After air-dried, each seedling was put into a separate glass test tube and inoculated with ten 3rd-instar larvae of Laodelphax striatella, and then the glass test tubes were capped with cotton plugs. At 8 days after the inoculation, the numbers of surviving larvae and dead larvae were counted, the corrected mortality rate was calculated according to the formula shown below, and the insecticidal effect was evaluated according to the criterion of Test Example 1. Corrected mortality rate (%)=100×(Survival rate in a non-treatment plot−Survival rate in a treatment plot)/Survival rate in a non-treatment plot

The next assay deals with Plutella xylostella. In words: Test of insecticidal effect on Plutella xylostella (dip of Chinese cabbage seedlings with laid eggs). As to conditions: 144 h, seedlings with laid eggs dipped for about 30 seconds, 25° C., 6 days after the dip treatment, read-out: insecticidal effect (corrected mortality rate), activity level. The source says: Test of Insecticidal Effect on Plutella xylostella
Adults of Plutella xylostella were released onto Chinese cabbage seedlings and allowed to lay eggs thereon. At 2 days after the release of the adults, the Chinese cabbage seedlings with laid eggs were dipped for about 30 seconds in agrochemical dispersions diluted to 500 ppm, each of which contained a different condensed heterocyclic compound represented by the general formula (1) of the present invention as an active ingredient. The seedlings were air-dried and then kept in a thermostatic chamber at 25° C. At 6 days after the dip treatment, the number of hatched larvae per plot was counted, the mortality rate was calculated according to the formula shown below, and the insecticidal effect was evaluated according to the criterion of Test Example 1. This test was conducted in triplicate using 10 adults of Plutella xylostella per plot. Corrected mortality rate (%)=100×(Number of hatched larvae in a non-treatment plot−Number of hatched larvae in a treatment plot)/Number of hatched larvae in a non-treatment plot

In general, mortality refers to the percentage killed.

Structures are written as SMILES.

With `CCSc1cc(C2CC2)cnc1-c1nc2cc(C(F)(F)F)ccc2n1C` [Compound 7-13, 2-(3-ethylthio-5-cyclopropylpyridin-2-yl)-1-methyl-5-trifluoromethyl-1H-benzimidazole], in the assay with Myzus persicae, the pest or weed control at 500 ppm came to 100%. For the same compound, the mortality at 500 ppm with Laodelphax striatella and with Plutella xylostella was 100% in each case.
As to `CCS(=O)(=O)c1cc(C2(C(N)=O)CC2)cnc1-c1nc2cc(C(F)(F)F)cnc2n1C` [Compound 11-6], the pest or weed control at 500 ppm with Myzus persicae came out at 100%. In addition, the mortality at 500 ppm in the assay with Laodelphax striatella and in the assay on Plutella xylostella was 100% in each case.
Consider `CC[S+]([O-])c1cc(C2CC2)cnc1-c1nc2cc(C(F)(F)F)ccc2n1C` (centres unmarked) [Compound 7-14, 2-(3-ethylsulfinyl-5-cyclopropylpyridin-2-yl)-1-methyl-5-trifluoromethyl-1H-benzimidazole], for which, in the assay on Myzus persicae, the pest or weed control at 500 ppm is 100%. Further, the mortality at 500 ppm in the assay with Laodelphax striatella and with Plutella xylostella was 100% throughout.
Consider `CCS(=O)(=O)c1cc(C2(C#N)CC2)cnc1-c1nc2cc(C(F)(F)F)cnc2n1C` [Compound 11-13], for which the pest or weed control at 500 ppm with Myzus persicae is 100%. Moreover, the mortality at 500 ppm in the assay with Laodelphax striatella and in the assay with Plutella xylostella was 100% throughout.
In the case of `CCSc1cc(C2CC2)cnc1-c1nc2cc(C(F)(F)F)cnc2s1` [Compound 5-13], the pest or weed control at 500 ppm in the assay with Myzus persicae was found to be 100%. The mortality at 500 ppm with Laodelphax striatella and in the assay with Plutella xylostella was 100% each time.
In the case of `CCS(=O)(=O)c1cc(C2CC2)cnc1-c1nc2cc(C(F)(F)F)ccc2n1C` [Compound 7-15, 2-(3-ethylsulfonyl-5-cyclopropylpyridin-2-yl)-1-methyl-5-trifluoromethyl-1H-benzimidazole], the pest or weed control at 500 ppm with Myzus persicae was determined as 100%. Moreover, the mortality at 500 ppm in the assay on Laodelphax striatella and with Plutella xylostella was 100% each time.
As for `CCS(=O)(=O)c1cc(C2(C(=O)O)CC2)cnc1-c1nc2cc(C(F)(F)F)cnc2n1C` [Compound 11-1], the pest or weed control at 500 ppm in the assay on Myzus persicae worked out at 100%. For the same compound, the mortality at 500 ppm in the assay on Laodelphax striatella and in the assay with Plutella xylostella was 100% in each case.
For `CCS(=O)(=O)c1cc(C2CC2)cnc1-c1nc2cc(C(F)(F)F)cnc2o1` [Compound 3-15, 2-(3-ethylsulfonyl-5-cyclopropylpyridin-2-yl)-5-trifluoromethyl-oxazolo[5,4-b]pyridine], in the assay with Myzus persicae, the pest or weed control at 500 ppm came out at 100%. Also, the mortality at 500 ppm in the assay with Laodelphax striatella and with Plutella xylostella was 100% each time.
For the compound `CCSc1cc(C2CC2)cnc1-c1nc2cc(C(F)(F)F)cnc2o1` [Compound 3-13, 2-(3-ethylthio-5-cyclopropylpyridin-2-yl)-5-trifluoromethyl-oxazolo[5,4-b]pyridine], the pest or weed control at 500 ppm with Myzus persicae came out at 100%. The mortality at 500 ppm in the assay with Laodelphax striatella and in the assay with Plutella xylostella was 100% in each case.
With `CCS(=O)(=O)c1cc(C2CC2)cnc1-c1nc2cc(C(F)(F)F)cnc2s1` [Compound 5-15], the pest or weed control at 500 ppm in the assay on Myzus persicae amounted to 100%. For the same compound, the mortality at 500 ppm with Laodelphax striatella and with Plutella xylostella was 100% throughout.
Consider `CCS(=O)(=O)c1cc(C2CC2C(=O)OC)cnc1-c1nc2cc(C(F)(F)F)cnc2n1C` (centres unmarked) [Compound 11-82], for which the pest or weed control at 500 ppm in the assay on Myzus persicae worked out at 100%. Also, in the assay with Laodelphax striatella, the mortality at 500 ppm turned out to be 100%.
Regarding `CCSc1cc(C2CC2)cnc1-c1nc2cc(C(F)(F)F)ccc2s1` [Compound 9-10, 2-(3-ethylthio-5-cyclopropylpyridin-2-yl)-5-trifluoromethyl-benzothiazole], the pest or weed control at 500 ppm in the assay on Myzus persicae was found to be 100%. For the same compound, the mortality at 500 ppm in the assay on Laodelphax striatella and with Plutella xylostella was 100% throughout.
As for `CCS(=O)(=O)c1cc(C2CC2)cnc1-c1nc2cc(C(F)(F)F)ccc2s1` [Compound 9-12, 2-(3-ethylsulfonyl-5-cyclopropylpyridin-2-yl)-5-trifluoromethyl-benzothiazole], the pest or weed control at 500 ppm with Myzus persicae worked out at 100%. In addition, the mortality at 500 ppm in the assay with Laodelphax striatella and in the assay on Plutella xylostella was 100% each time.
For the compound `CCS(=O)(=O)c1cc(C2CC2)cnc1-c1nc2cc(C(F)(F)F)cnc2n1C` [Compound 1-15], the pest or weed control at 500 ppm in the assay with Myzus persicae turned out to be 100%. The mortality at 500 ppm in the assay with Laodelphax striatella and in the assay on Plutella xylostella was 100% each time.
On to `CCS(=O)(=O)c1cc(C2(C(=O)OC)CC2)cnc1-c1nc2cc(C(F)(F)F)cnc2n1C` [Compound 11-2], for which the pest or weed control at 500 ppm in the assay with Myzus persicae stood at 100%. Further, the mortality at 500 ppm with Laodelphax striatella and with Plutella xylostella was 100% throughout.
